In paper PMC5467316, “Antiviral Activity of Fridericia formosa (Bureau) L. G. Lohmann (Bignoniaceae) Extracts and Constituents” (Journal of Tropical Medicine, 2017):
Like-named read-outs stand apart in the source and are kept apart here.

What was measured:
Vero cells = system: Vero cells; design: method as in PMID 24679044; conditions: cited from earlier work
Enterovirus 71 = system: Enterovirus 71; design: method as in PMID 24679044; conditions: in vitro; read-out: EC50 against Enterovirus 71; cited from earlier work
[1] = Cytotoxicity assay (MTT), Vero cells; format: cell-based; conditions: African green monkey
[2] = Cytotoxicity assay (MTT), LLCMK2 cells; format: cell-based; conditions: rhesus monkey
[3] = system: hepatitis B antigen (HBeAg); design: method as in PMID 23576173; conditions: cited from earlier work
[4] = system: hepatitis B surface antigen (HBsAg); design: method as in PMID 23576173; conditions: cited from earlier work
[5] = system: vaccinia virus Western Reserve (VACV-WR); assay: microbe, parasite or virus in culture; format: cell-based; conditions: for EC50: Vaccinia virus Western Reserve, 48 h; for antiviral activity against VACV-WR (in words): statement in text
[6] = system: murine encephalomyocarditis virus (EMCV); format: cell-based; conditions: statement in text
HSV-1 = system: HSV-1; design: method as in PMID 16350858; conditions: previously reported; read-out: EC50 against HSV-1; cited from earlier work
[7] = system: human herpes virus 1 (HSV-1); assay: microbe, parasite or virus in culture; format: cell-based; conditions: for EC50: Human alphaherpesvirus 1, 48 h; for antiviral activity against HSV-1 (in words): statement in text
[8] = design: method as in PMID 14977449; conditions: clinical tests; cited from earlier work
[9] = system: dengue virus type 2 (DENV-2); assay: microbe, parasite or virus in culture; format: cell-based; conditions: for antiviral activity against DENV-2 (in words): statement in text; for EC50: Dengue virus, DENV2, 72 h
HIV-1 replication = system: HIV-1 replication; design: method as in PMID 24066838, PMID 21610656; conditions: dose dependent manner; cited from earlier work
[10] = read-out: VACV-WR EC50 (value in parentheses), viral titer TCID50/mL 1.0 × 10^6 in 48 h, MTT, concentration in µM
[11] = read-out: VACV-WR EC50, viral titer TCID50/mL 1.0 × 10^6 in 48 h, MTT
[12] = read-out: HSV-1 EC50 (value in parentheses)

euxanthone
CC50 (Vero cells): 36.6 µM
EC50 (Enterovirus 71): 12.2 µM

Nc1nc2c(ncn2COCCO)c(=O)[nH]1 [Acyclovir, reference compound]
CC50 ([1]; MTT, exposure 48 and 72 h, read-out: Vero CC50): > 1000 µg/mL
CC50 ([2]; MTT, exposure 48 and 72 h, read-out: LLCMK2 CC50): > 1000 µg/mL

COc1cc(O)c2c(=O)c3c(O)ccc(O)c3oc2c1 [1,5,8-trihydroxy-3-methoxyxanthone]
EC50 [3]: 350 µM
EC50 [4]: > 980 µM

O=c1c2c(O)cc(O)cc2oc2c(O)ccc(O)c12 [norbellidifolin]
EC50 [3]: < 620 µM
EC50 [4]: 770 µM

O=c1c2cc(O)ccc2oc2cc(O)c([C@@H]3O[C@H](CO)[C@@H](O)[C@H](O)[C@H]3O)c(O)c12 [2-C-β-D-glucopyranosyl-1,3,7-trihydroxyxanthone]
EC50 [3]: 40 µM
EC50 [4]: 210 µM

O=c1cc(-c2ccccc2)oc2cc(O)cc(O)c12 [Chrysin (4), 5,7-Dihydroxy-2-phenyl-4H-1-benzopyran-4-one]
EC50 [5, 10]: 486 µM
EC50 [5, 11]: > 100 µg/mL
antiviral activity against VACV-WR (in words) [5]: low activity
VACV-WR EC50 ([5]; viral titer TCID50/mL 1.0 × 10^6 in 48 h, MTT): 123.5 ± 10.5 µg/mL
antiviral activity against EMCV (in words) [6]: did not inhibit the replication cycle
EC50 (HSV-1): 2.5 µM
CC50 [1]: > 500 µg/mL
EC50 ([7]; read-out: HSV-1 EC50): > 100 µg/mL
EC50 [7, 12]: 576 µM
antiviral activity against HSV-1 (in words) [7]: low activity
effect on testosterone levels in men (in words) [8]: no effect
CC50 [2]: > 500 µg/mL
antiviral activity against DENV-2 (in words) [9]: did not inhibit the replication cycle

O=c1c2cc(O)c(O)cc2oc2cc(O)c([C@@H]3O[C@H](CO)[C@@H](O)[C@H](O)[C@H]3O)c(O)c12 [Mangiferin (1), 2-β-D-Glucopyranosyl-1,3,6,7-tetrahydroxy-9H-xanthen-9-one]
EC50 [5, 10]: 432 µM
EC50 [5, 11]: 183 ± 14.3 µg/mL
antiviral activity against VACV-WR (in words) [5]: low antiviral effect
antiviral activity against VACV-WR (in words) ([5]; listed as mangiferin): practically inactive
antiviral activity against EMCV (in words) [6]: low antiviral effect
antiviral activity against EMCV (in words) ([6]; listed as mangiferin): practically inactive
CC50 [1]: > 500 µg/mL
EC50 ([7]; read-out: HSV-1 EC50): 268 µg/mL
EC50 [7, 12]: 635 µM
antiviral activity against HSV-1 (in words) [7]: low antiviral effect
antiviral activity against HSV-1 (in words) ([7]; listed as mangiferin): practically inactive
CC50 [2]: > 500 µg/mL
EC50 ([9]; read-out: DENV-2 EC50): 266 µg/mL
EC50 ([9]; read-out: DENV-2 EC50 (value in parentheses)): 629 µM
antiviral activity against DENV-2 (in words) [9]: low antiviral effect
antiviral activity against DENV-2 (in words) ([9]; listed as mangiferin): practically inactive
inhibitory activity on HIV-1 replication (in words) (HIV-1 replication): good inhibitory activity
